Where a SMILES comes first, the peptide text is derived from it. The star is where a group is joined. Cbz = O=C(OCc1ccccc1)*
Legend:
Format in all cases: cell-based, human
[1] = system: proteasome activity in 2008/C*13 R cells; assay: Proteasome activity assay (commercially available kit) on cell lysates; details: 48 h
[2] = system: total ubiquitinated proteins in 2008 cells; assay: Western blotting of total ubiquitinated proteins; details: 24 h
Procedure: (§1) FIG. 9. CDDP-resistant tumor cells have more endogenous ubiquitinated proteins. CDDP-resistant (2008/C*13 R) and sensitive (2008) ovarian tumor cells were plated in six-well plates and were untreated or treated with MG132. Cells were harvested 24 h after treatment, total cell lysate prepared and subjected to western blotting. Membrane was probed with human anti-ubiquitinated antibody.
as §1, with “CDDP-Resistant Tumor Cells Have More Endogenous Ubiquitinated Proteins.” for “FIG. 9. CDDP-resistant tumor cells have more endogenous ubiquitinated proteins.”, “antibody. […] (FIG. 9)” for “antibody.”

[3] = system: p53, pJNK, p38MAPK, p44/42MAPK in 2008 cells; assay: Western blotting of endogenous ubiquitinated proteins; details: 24 h
Procedure: FIG. 16. Expression of endogenous ubiquitinated proteins is increased in MG132-treated CDDP-sensitive tumor cells but not in CDDP-resistant tumor cells. CDDP-resistant (2008/C*13 R) and sensitive (2008) ovarian tumor cells were plated in six-well plates. At 24 h after plating cells were treated with PBS or MG132. At 24 h after treatment cells were harvested, lysates prepared and subjected to western blotting. Primary antibodies used were anti-human p53, anti-human pJNK, antihuman-p38MAPK and anti-human p44/42MAPK antibody. […] Beta-actin was used as internal loading control.
FIG. 19. SiRNA-mediated inhibition of Beta-5 subunit expression of the 20S proteasome in CDDP-sensitive tumor cells results in increased endogenous protein expression. CDDP-sensitive (2008) ovarian tumor cells were plated in six-well plates. At 24 h after plating cells were treated with PBS, control SiRNA, or beta-5 specific SiRNAs (100 nM). At 48 h after treatment cells were harvested, lysates prepared and subjected to western blotting. Primary antibodies used were anti-human beta-5 antibody, anti-human p53 antibody and anti-human pJNK antibody. […] Beta-actin was used as internal loading control.
Expression of Endogenous Ubiquitinated Proteins is Increased in MG132-Treated CDDP-Sensitive Tumor Cells but not in CDDP-Resistant Tumor Cells. […]

CC(C)C[C@@H](C=O)NC(=O)[C@H](CC(C)C)NC(=O)[C@H](CC(C)C)NC(=O)OCc1ccccc1 [MG132] (Cbz-Leu-Leu-Leu-aldehyde)
inhibition of proteasome activity ([1]; FIG. 11A (Ad-mda7 experiment)): 20% | inhibition of proteasome activity ([1]; FIG. 11B (Ad-p53 experiment)): 20% | total ubiquitinated protein levels [2]: greatly increased | expression of p53, pJNK, p38MAPK, p44/42MAPK [3]: increased expression

From patent publication US20090004145A1, “COMPOSITIONS AND METHODS INVOLVING GENE THERAPY AND PROTEASOME MODULATION” (priority 2006, published 2009)
